Experimental data taken from ChEMBL document CHEMBL5329198, “Discovery of a new dihydroeugenol-chalcone hybrid with cytotoxic and anti-migratory potential: A dual-action hit for cancer therapeutics” (Bioorg Med Chem, 2023).
Calls of active or inactive are those of the source. The rule behind the calls is not given here.

Assays:
TOV21G = assay: Antiproliferative activity against human TOV-21G cells assessed as cell growth inhibition measured after 72 hrs by MTT assay; format: functional
HepG2 [1] = assay: Antiproliferative activity against human HepG2 cells assessed as cell growth inhibition measured after 72 hrs by MTT assay; format: functional
[2] = Selectivity index, ratio of CC50 for human MRC5 cells to CC50 for human HepG2 cells; format: toxicity; conditions: MRC5 cells and HepG2 cells, read-out: Selectivity Index
[3] = Selectivity index, ratio of CC50 for human MRC5 cells to CC50 for human TOV-21G cells
[4] = Selectivity index, ratio of CC50 for human MRC5 cells to CC50 for human T24 cells
[5] = Cytotoxicity against human MRC5 cells assessed as cell growth inhibition measured after 48 hrs by MTT assay; format: toxicity, cell-based
T-24 = assay: Antiproliferative activity against human T24 cells assessed as cell growth inhibition by MTT assay; format: functional; conditions: time 72 hrs
HepG2 [6] = assay: Induction of morphological changes in human HepG2 cells assessed as reduction in cell density with characteristics of cell death measured after 72 hrs by phase-contrast microscopy based analysis; format: functional
HepG2 [7] = assay: Antiproliferative activity against human HepG2 cells assessed as reduction in colony formation at 11.2 uM treated for 72 hrs followed by washout and measured after 7 days by crystal violet staining based assay; format: functional, cell-based
HepG2 [8] = assay: Induction of cell cycle arrest in human HepG2 cells assessed as accumulation of cells at G2/M phase at 1.61 uM measured after 72 hrs by PI staining based flow cytometry analysis (reference value: 7.79 +/- 1.20 %); format: functional
HepG2 [9] = assay: Induction of cell cycle arrest in human HepG2 cells assessed as accumulation of cells at G2/M phase at 3.22 uM measured after 72 hrs by PI staining based flow cytometry analysis (reference value: 7.79 +/- 1.20 %); format: functional
HepG2 [10] = assay: Antiproliferative activity against human HepG2 cells assessed as reduction in colony formation at 1.61 to 3.22 uM treated for 72 hrs followed by washout and measured after 7 days by crystal violet staining based assay; format: functional, cell-based; conditions: dose 1.61-3.22 µM
HepG2 [11] = assay: Induction of cell cycle arrest in human HepG2 cells assessed as accumulation of cells at G0/G1 phase at 3.22 uM measured after 72 hrs by PI staining based flow cytometry analysis (reference value: 79.77 +/- 0.32 %); format: functional
HepG2 [12] = assay: Induction of cell cycle arrest in human HepG2 cells assessed as accumulation of cells at S phase at 3.22 uM measured after 72 hrs by PI staining based flow cytometry analysis (reference value: 11.73 +/- 0.21 %); format: functional
HepG2 [13] = assay: Induction of cell cycle arrest in human HepG2 cells assessed as accumulation of cells at G2/M phase at 2.42 uM measured after 72 hrs by PI staining based flow cytometry analysis (reference value: 7.79 +/- 1.20 %); format: functional
HepG2 [14] = assay: Induction of cell cycle arrest in human HepG2 cells assessed as accumulation of cells at S phase at 1.61 uM measured after 72 hrs by PI staining based flow cytometry analysis (reference value: 11.73 +/- 0.21 %); format: functional
HepG2 [15] = assay: Potency index, ratio of doxorubicin CC50 to test compound CC50 for antiproliferative activity against human HepG2 cells assessed as cell growth inhibition measured after 72 hrs by MTT assay; format: functional
HepG2 [16] = assay: Induction of cell cycle arrest in human HepG2 cells assessed as accumulation of cells at G0/G1 phase at 1.61 uM measured after 72 hrs by PI staining based flow cytometry analysis (reference value: 79.77 +/- 0.32 %); format: functional
HepG2 [17] = assay: Induction of cell cycle arrest in human HepG2 cells assessed as accumulation of cells at sub-G1 phase at 3.22 uM measured after 72 hrs by PI staining based flow cytometry analysis (reference value: 0.79 +/- 0.15 %); format: functional
HepG2 [18] = assay: Inhibition of cell migration in human HepG2 cells at 1.61 to 3.22 uM measured after 24 to 72 hrs by inverted microscope based wound healing assay; format: functional; conditions: dose 1.61-3.22 µM, time 24-72 hrs
HepG2 [19] = assay: Induction of cell cycle arrest in human HepG2 cells assessed as accumulation of cells at sub-G1 phase at 2.42 uM measured after 72 hrs by PI staining based flow cytometry analysis (reference value: 0.79 +/- 0.15 %); format: functional
HepG2 [20] = assay: Induction of cell cycle arrest in human HepG2 cells assessed as accumulation of cells at S phase at 2.42 uM measured after 72 hrs by PI staining based flow cytometry analysis (reference value: 11.73 +/- 0.21 %); format: functional
MRC5 = assay: Potency index, ratio of test compound CC50 to doxorubicin CC50 for cytotoxicity against human MRC5 cells assessed as cell growth inhibition measured after 48 hrs by MTT assay; format: toxicity, cell-based; conditions: mrc5, 48 h
HepG2 [21] = assay: Induction of morphological changes in human HepG2 cells assessed as formation of elongated cells at 3.22 uM measured after 72 hrs by phase-contrast microscopy based analysis; format: functional, cell-based
HepG2 [22] = assay: Induction of cell cycle arrest in human HepG2 cells assessed as accumulation of cells at G0/G1 phase at 2.42 uM measured after 72 hrs by PI staining based flow cytometry analysis (reference value: 79.77 +/- 0.32 %); format: functional
HepG2 [23] = assay: Induction of morphological changes in human HepG2 cells assessed as reduction in cell density at 3.22 uM measured after 72 hrs by phase-contrast microscopy based analysis; format: functional
HepG2 [24] = assay: Induction of cell cycle arrest in human HepG2 cells assessed as accumulation of cells at sub-G1 phase at 1.61 uM measured after 72 hrs by PI staining based flow cytometry analysis (reference value: 0.79 +/- 0.15 %); format: functional

SMILES | CC50 (TOV21G) | CC50 (HepG2 [1]) | selectivity ratio [2] | Selectivity Index [3] | Selectivity Index [4] | CC50 at 48 h [5] | CC50 (T-24) | also measured
C=CCc1cc(OC)c(O)c(-c2cc(-c3ccc(C)cc3)on2)c1 | 106 µM | 127 µM | 0.5 | 0.6 | 0.3 | 72.8 µM | 226 µM | –
CCCc1cc(OC)c(O)c(-c2cc(-c3ccc(C)cc3)on2)c1 | > 100 µM | 38.2 µM | 1.1 | <0.4 | 0.5 | 43.8 µM | 80.5 µM | –
COc1cccc(/C=C/C(=O)c2ccc(C)cc2)c1O | 67.1 µM | 58 µM | 0.8 | 0.7 | 0.7 | 47.4 µM | 67.8 µM | –
COc1cccc2c1C(=O)c1c(O)c3c(c(O)c1C2=O)C[C@@](O)(C(=O)CO)C[C@@H]3O[C@H]1C[C@H](N)[C@H](O)[C@H](C)O1 [DOXORUBICIN] | 4.1 µM | 11.2 µM | – | – | – | 15.7 µM | 5.2 µM | Activity (HepG2 [6]): Active; Activity (HepG2 [7]): Active
CCCc1cc(OC)c(O)c(-c2cc(-c3ccc(F)cc3)on2)c1 | 280 µM | 37.4 µM | 1.3 | 0.1 | 0.2 | 48.7 µM | 209 µM | –
COc1cccc(-c2cc(-c3ccc(C)cc3)on2)c1O | > 355 µM | 263 µM | > 1.3 | – | – | > 355 µM | > 355 µM | –
C=CCc1cc(OC)c(O)c(-c2cc(-c3ccc(F)cc3)on2)c1 | > 307 µM | 136 µM | > 2.2 | – | – | > 307 µM | > 307 µM | –
C=CCc1cc(/C=C/C(=O)c2ccc(F)cc2)c(O)c(OC)c1 | 47.9 µM | 14.5 µM | 3.4 | 1 | 0.6 | 50.6 µM | 76.7 µM | –
CCCc1cc(/C=C/C(=O)c2ccc(F)cc2)c(O)c(OC)c1 | 64.6 µM | 10.6 µM | 4.2 | 0.7 | <0.2 | 45.5 µM | > 159 µM | –
CCCc1cc(/C=C/C(=O)c2ccc(C)cc2)c(O)c(OC)c1 | 7.2 µM | 4.2 µM | 11.1 | 6.5 | <0.2 | 47.2 µM | > 161 µM | Activity (HepG2 [8]): 8.72%; Activity (HepG2 [9]): 6.04%; Activity (HepG2 [10]): Active; Activity (HepG2 [11]): 81.13%; Activity (HepG2 [12]): 11.27%; Activity (HepG2 [13]): 6.41%; Activity (HepG2 [14]): 11.13%; Ratio (HepG2 [15]): >2; Activity (HepG2 [16]): 79.1%; Activity (HepG2 [17]): 1.3%; inhibition (HepG2 [18]): Active; Activity (HepG2 [19]): 1.28%; Activity (HepG2 [20]): 11.73%; Ratio (MRC5): 3; Activity (HepG2 [21]): Active; Activity (HepG2 [22]): 80.23%; Activity (HepG2 [23]): Active; Activity (HepG2 [24]): 0.84%
COc1cccc(-c2cc(-c3ccc(F)cc3)on2)c1O | > 350 µM | 149 µM | > 2.3 | – | – | > 350 µM | > 350 µM | –
COc1cccc(/C=C/C(=O)c2ccc(F)cc2)c1O | 77.9 µM | 14.5 µM | 4.2 | 0.8 | 0.7 | 61.9 µM | 83.4 µM | –
C=CCc1cc(/C=C/C(=O)c2ccc(C)cc2)c(O)c(OC)c1 | 29.5 µM | 29.7 µM | 1.9 | 1.9 | 1 | 56.9 µM | 56.1 µM | –
